Source: US20190367520A1, “NEW COMPOUND HAVING FGFR INHIBITORY ACTIVITY AND PREPARATION AND APPLICATION THEREOF” (SHANGHAI INSTITUTE OF MATERIA MEDICA, CHINESE ACADEMY OF …, priority 2016, published 2019)

Experiments:
SNU16 cells = test: SNU16 cell proliferation (CCK-8, 72 h); format: cell-based; settings: Homo sapiens, SNU-16, read-out: SNU16 (IC50 class)
Method: The inhibitory effect of the compound on SNU16 cells proliferation was examined by CCK-8 Cell Counting Kit (Dojindo). The specific steps are as follows: SNU16 cells in logarithmic growth phase were inoculated into a 96-well culture plate at a suitable density, 90 μL per well, and cultured overnight, different concentrations of compounds were added for 72 hr, and the solvent control group was set (negative control). After the cells were treated by the compound for 72 h, the effect of the compound on cell proliferation was detected by CCK-8 cell counting kit (Dojindo). 10 μL of CCK-8 reagent was added to each well and placed in a 37° C. incubator for 2-4 hours. The full-wavelength microplate reader SpectraMax 190 was used at a measure wavelength of 450 nm.

[1] = target: FGFR1 kinase domain recombinant protein (Homo sapiens, UniProt P11362); test: FGFR1 enzyme activity at molecular level (ELISA, Poly(Glu,Tyr) 4:1 substrate)
FGFR1 kinase domain recombinant protein, sequence (P11362 478-767 limits assumed): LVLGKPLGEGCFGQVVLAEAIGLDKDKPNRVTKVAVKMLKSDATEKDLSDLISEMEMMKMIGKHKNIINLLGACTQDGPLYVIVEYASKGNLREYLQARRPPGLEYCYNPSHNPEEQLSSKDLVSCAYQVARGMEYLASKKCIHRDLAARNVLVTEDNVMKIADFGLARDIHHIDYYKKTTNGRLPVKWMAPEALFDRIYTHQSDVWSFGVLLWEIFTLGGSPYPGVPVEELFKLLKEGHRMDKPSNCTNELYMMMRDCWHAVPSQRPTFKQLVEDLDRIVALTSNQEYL
Method: (§1) The plate was placed at 37° C. for 12-16 hours. The liquid in the well was discarded, the plate was washed, and the panel was washed three times with 200 μL/well of T-PBS (PBS containing 0.1% Tween-20) for 5 minutes each time.
(§2) 50 μL of ATP solution diluted with reaction buffer (50 mM HEPES pH 7.4, 50 mM MgCl2, 0.5 mM MnCl2, 0.2 mM Na3VO4, 1 mM DTT) was added to each well to a final concentration of 5 μM. The compound was diluted to a suitable concentration in DMSO, 1 μL/well or containing the corresponding concentration of DMSO (negative control well), and the FGFR1, FGFR4 kinase domain recombinant protein diluted in 49 μL of reaction buffer was added to initiate the reaction. Two control wells without ATP were required for each experiment. The reaction was carried out for 1 hour at 37° C. on a shaker (100 rpm). The plate was washed three times with T-PBS. Primary antibody, PY99 dilution was added at 100 μL/well and shaken at 37° C. for 0.5 hour. The plate was washed three times with T-PBS. Secondary antibody, horseradish peroxidase-labeled goat anti-mouse IgG dilution was added at 100 μL/well, and shaken at 37° C. for 0.5 hour. […] (Ultrasound was required for the dissolution of OPD, and the chromogenic solution needed to be prepared when used). 2 M H2SO4 was added at 50 μL/well to quench the reaction and a tunable wavelength microplate reader SPECTRA MAX 190 was used at a wavelength of 490 nm.
(§3) The inhibition rate of the sample was obtained by the following formula:
(§4) The IC50 value was obtained by four-parameter regression using the software attached to the microplate reader.

[2] = target: FGFR4 kinase domain recombinant protein (Homo sapiens, UniProt P22455); test: FGFR4 enzyme activity at molecular level (ELISA, Poly(Glu,Tyr) 4:1 substrate)
FGFR4 kinase domain recombinant protein, sequence (P22455 467-755 limits assumed): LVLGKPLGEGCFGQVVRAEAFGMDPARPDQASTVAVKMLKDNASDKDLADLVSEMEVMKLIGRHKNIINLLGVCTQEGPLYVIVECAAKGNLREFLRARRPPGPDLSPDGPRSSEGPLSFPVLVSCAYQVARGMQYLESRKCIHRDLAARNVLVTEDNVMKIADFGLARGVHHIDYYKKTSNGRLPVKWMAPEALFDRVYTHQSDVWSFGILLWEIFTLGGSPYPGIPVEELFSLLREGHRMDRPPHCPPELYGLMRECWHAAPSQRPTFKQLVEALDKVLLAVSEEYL
Method: as §1, §2, §3, §4

| IC50 (SNU16 cells) | IC50 [1] | IC50 [2] | Compound |
| --- | --- | --- | --- |
| < 10 nM | < 10 nM | < 10 nM | C=C(CN1CCOCC1)C(=O)N1CC(n2cc(-c3cc4cc(C)cc(OC)c4s3)c3c(N)ncnc32)C1 [NO. 31, 1-(3-(4-amino-5-(7-methoxy-5-methylbenzothiophene-2-yl)-7H-pyrrole[2,3-d]pyrimidine-7-yl)azetidine-1-yl)-2-(morpholinomethylene)prop-2-en-1-one] |
| < 10 nM | < 10 nM | > 100 nM | COc1cc(C)cc2cc(-c3nn([C@H]4CCN(C(=O)/C=C/CN(C)C)C4)c4ncnc(N)c34)sc12 [NO. 38] |
|  | < 10 nM | < 10 nM | COc1cc(C)cc2cc(-c3cn(C4CCN(C(=O)C(C#N)=CC5CC5)C4)c4ncnc(N)c34)sc12 (centres unmarked) [NO. 25, 2-(3-(4-amino-5-(7-methoxy-5-methylbenzothiophene-2-yl)-7H-pyrrole[2,3-d]pyrimidine-7-yl)pyrrolidine-1-carbonyl)-3-cyclopropyl acrylonitrile] |
|  | < 10 nM | 10 to 100 nM | C/C=C/C(=O)N1CCC(n2cc(-c3cc4cc(C)cc(OC)c4s3)c3c(N)ncnc32)C1 (centres unmarked) [NO. 18, (E)-1-(3-(4-amino-5-(7-methoxy-5-methylbenzothiophene-2-yl)-7H-pyrrole[2,3-d]pyrimidine-7-yl)pyrrolidine-1-yl)but-2-en-1-one] |
| > 100 nM | < 10 nM | < 10 nM | C=CS(=O)(=O)N1CC[C@H](n2nc(-c3cc4cc(C)cc(OC)c4s3)c3c(N)ncnc32)C1 [NO. 40] |
| > 100 nM | 10 to 100 nM | 10 to 100 nM | C=CC(=O)N1CCC(n2cc(-c3ccc4[nH]c(C)nc4c3)c3c(N)ncnc32)C1 (centres unmarked) [NO. 36, 1-(3-(4-amino-5-(2-methyl-1H-benzimidazol-5-yl)-7H-pyrrole[2,3-d]pyrimidine-7-yl)pyrrolidine-1-yl)prop-2-en-1-one] |
|  | > 100 nM | > 100 nM | C=CC(=O)N1CCC(n2cc(-c3ccncc3)c3c(N)ncnc32)C1 (centres unmarked) [NO. 82, 1-(3-(4-amino-5-(pyridine-4-yl)-7H-pyrrole[2,3-d]pyrimidine-7-yl)pyrrolidine-1-yl)prop-2-en-1-one] |
| < 10 nM | < 10 nM | < 10 nM | C=CC(=O)N1CCC(n2cc(-c3cc4cc(C)cc(OC)c4s3)c3c(N)ncnc32)C1 (centres unmarked) [NO. 1, 1-(3-(4-amino-5-(7-methoxy-5-methylbenzothiophen-2-yl)-7H-pyrrole[2,3-d]pyrimidine-7-yl)pyrrolidine-1-yl)prop-2-en-1-one] |
|  | > 100 nM | > 100 nM | C=CC(=O)N1CCC(n2cc(-c3cc4cc(C)cc(OC)c4s3)c3c(N(C)C)ncnc32)C1 (centres unmarked) [NO. 63, 1-(3-(4-(dimethylamino)-5-(7-methoxy-5-methylbenzothiophene-2-yl)-7H-pyrrole[2,3-d]pyrimidine-7-yl)pyrrolidine-1-yl)prop-2-en-1-one] |
|  | > 100 nM | > 100 nM | C=CC(=O)N1CCC(n2cc(-c3cc4cc(C(=O)O)cc(OC)c4s3)c3c(N)ncnc32)C1 (centres unmarked) [NO. 85, 2-(7-(1-acryloylpyrrolidine-3-yl)-4-amino-7H-pyrrole[2,3-d]pyrimidine-5-yl)-7-methoxybenzothiophene-5-formic acid] |
|  | < 10 nM | < 10 nM | C=C(CN1CCN(C)CC1)C(=O)N1CC(n2cc(-c3cc4cc(C)cc(OC)c4s3)c3c(N)ncnc32)C1 [NO. 52, 1-(3-(4-amino-5-(7-methoxy-5-methylbenzothiophene-2-yl)-7H-pyrrole[2,3-d]pyrimidine-7-yl)azetidine-1-yl)-2-((4-methylpiperazin-1-yl)methylene)prop-2-en-1-one] |
|  | < 10 nM | 10 to 100 nM | COc1cc(C)cc2cc(-c3cn(C4CN(C(=O)/C=C/CN(C)C)C4)c4ncnc(N)c34)sc12 [NO. 19, (E)-1-(3-(4-amino-5-(7-methoxy-5-methylbenzothiophene-2-yl)-7H-pyrrole[2,3-d]pyrimidine-7-yl)azetidin-1-yl)-4-(dimethylamino)but-2-en-1-one] |
| < 10 nM | < 10 nM | 10 to 100 nM | C=C(F)C(=O)N1CC(n2cc(-c3cc4cc(C)cc(OC)c4s3)c3c(N)ncnc32)C1 [NO. 29] |
|  | < 10 nM | 10 to 100 nM | C=C(CN1CCOCC1)C(=O)N1CC[C@H](n2nc(-c3cc4cc(C)cc(OC)c4s3)c3c(N)ncnc32)C1 [NO. 54, (S) 1-(3-(4-amino-3-(7-methoxy-5-methylbenzothiophene-2-yl)-1H-pyrazole[3,4-d]pyrimidine-1-yl)pyrrolidine-1-yl)-2-(morpholinemethylene)prop-2-en-1-one] |
|  | < 10 nM | 10 to 100 nM | COc1cc(C)cc2cc(-c3cn(C4CN(C(=O)/C=C/CN5CCCC5)C4)c4ncnc(N)c34)sc12 [NO. 17] |
|  | < 10 nM | 10 to 100 nM | COc1cc(C)cc2cc(-c3cn(C4CCN(C(=O)/C=C/CN5CCC(F)C5)C4)c4ncnc(N)c34)sc12 (centres unmarked) [NO. 69, (E)-1-(3-(4-amino-5-(7-methoxy-5-methylbenzothiophene-2-yl)-7H-pyrrole[2,3-d]pyrimidine-7-yl)pyrrolidine-1-yl)-4-(3-fluoropyrrolidin-1-yl)but-2-en-1-one] |
|  | 10 to 100 nM | > 100 nM | COc1cc(C)cc2cc(-c3cn(C4CCNC4)c4ncnc(N)c34)sc12 (centres unmarked) [NO. 9, 5-(7-methoxy-5-methylbenzothiophene-2-yl)-7-(pyrrolidine-3-yl)-7H-pyrrole[2,3-d]pyrimidine-4-amine] |
|  | 10 to 100 nM | < 10 nM | C=C(CN1CCOCC1)C(=O)N1CC[C@H](n2cc(-c3cc4cc(C)cc(OC)c4s3)c3c(N)ncnc32)C1 [NO. 45, (S) 1-(3-(4-amino-5-(7-methoxy-5-methylbenzothiophane-2-yl)-7H-pyrrole[2,3-d]pyrimidine-7-yl)pyrrolidine-1-yl)-2-(morpholinemethylene)prop-2-en-1-one] |
| > 100 nM | < 10 nM | < 10 nM | C#CC(=O)N1CC[C@H](n2nc(-c3cc4cc(C)cc(OC)c4s3)c3c(N)ncnc32)C1 [NO. 39, (S)-1-(3-(4-amino-3-(7-methoxy-5-methylbenzothiophene-2-yl)1H-pyrazolo[3,4-d]pyrimidine-1-yl)pyrrolidin-yl)prop-2-yn-1-one] |
| > 100 nM | < 10 nM | 10 to 100 nM | C#CC(=O)N1CC(n2nc(-c3cc4cc(C)cc(OC)c4s3)c3c(N)ncnc32)C1 [NO. 27] |
|  | < 10 nM | > 100 nM | COc1cc(C)cc2cc(-c3nn(C4CCN(C(=O)CCl)C4)c4ncnc(N)c34)sc12 (centres unmarked) [NO. 84, 1-(3-(4-amino-3-(7-methoxy-5-methylbenzothiophene-2-yl)-1H-pyrazole[3,4-d]pyrimidine-1-yl)pyrrolidine-1-yl)-2-chloroethane-1-one] |
|  | < 10 nM | < 10 nM | C=CC(=O)N1CCC(n2cc(-c3cc4cc(C(F)(F)F)cc(OC)c4s3)c3c(N)ncnc32)C1 (centres unmarked) [NO. 58, 1-(3-(4-amino-5-(7-methoxy-5-(trifluoromethyl)benzothiophene-2-yl)-7H-pyrrole[2,3-d]pyrimidine-7-yl)pyrrolidine-1-yl)prop-2-en-1-one] |
|  | < 10 nM | < 10 nM | C=CC(=O)N1CC[C@H](n2nc(-c3cc4cc(C)cc(OC)c4s3)c3c(N)ncnc32)C1 [NO. 56, (S) 1-(3-(4-amino-3-(7-methoxy-5-methylbenzothiophene-2-yl)-1H-pyrazole[3,4-d]pyrimidine-1-yl)pyrrolidine-1-yl)prop-2-en-1-one] |
| < 10 nM | < 10 nM | 10 to 100 nM | C=CC(=O)N1CCC(n2nc(-c3cc4cc(C)cc(OC)c4s3)c3c(N)ncnc32)C1 (centres unmarked) [NO. 2, 1-(3-(4-amino-3-(7-methoxy-5-methylbenzothiophene-2-yl)-1H-pyrazole[3,4-d]pyrimidine-1-yl)pyrrolidine-1-yl)prop-2-en-1-one] |
|  | > 100 nM | > 100 nM | C=CC(=O)N1CCC(n2cc(-c3ccoc3)c3c(N)ncnc32)C1 (centres unmarked) [NO. 83, 1-(3-(4-amino-5-(furan-3-yl)-7H-pyrrole [2,3-d]pyrimidine-7-yl)pyrrolidine-1-yl)prop-2-en-1-one] |
| > 100 nM | < 10 nM | < 10 nM | C=CC(=O)N1CC(n2nc(-c3cc4cc(C)cc(OC)c4s3)c3c(N)ncnc32)C1 [NO. 26, 1-(3-(4-amino-3-(7-methoxy-5-methylbenzothiophene-2-yl)-1H-pyrazole[3,4-d]pyrimidine-1-yl)azetidine-1-yl)prop-2-en-1-one] |

| Compound | IC50 (SNU16 cells) | IC50 [1] | IC50 [2] |
| --- | --- | --- | --- |
| C=CS(=O)(=O)N1CC(n2cc(-c3cc4cc(C)cc(OC)c4s3)c3c(N)ncnc32)C1 [NO. 28, 5-(7-methoxy-5-methylbenzothiophene-2-yl)-7-(1-(vinylsulfonyl)azetidine-3-yl)-7H-pyrrole[2,3-d]pyrimidine-4-amine] | > 100 nM | < 10 nM |  |
| C=CC(=O)N1CC(n2cc(-c3cc4c(OC)ccc(OC)c4s3)c3c(N)ncnc32)C1 [NO. 41, 1-(3-(4-amino-5-(4,7-dimethoxybenzothiophen-2-yl)-7H-pyrrole[2,3-d]pyrimidine-7-yl)azetidine-1-yl)prop-2-en-1-one] | 10 to 100 nM |  |  |
